Consider 52 molecules from ChEMBL document CHEMBL6182881, “Optimized ebselen derivatives as novel potent Escherichia coli β-glucuronidase covalent allosteric inhibitors” (Eur J Med Chem, 2025).

As a reminder, the inhibition is the drop in the measured response relative to a control, in per cent. Broadly, the IC50 is the point on the concentration scale where inhibition reaches its midpoint.

Activity calls are given as the source filed them. No cut-off for these calls is given here. Some results are limits rather than exact numbers.

Data set [1] concerns Escherichia coli. In words: Covalent allosteric inhibition of recombinant Escherichia coli beta-glucuronidase using PNPG as substrate at 10 uM incubated for 30 mins by absorbance based microplate reader assay relative to control.
Data set [2] is described as follows: Covalent allosteric inhibition of recombinant Escherichia coli beta-glucuronidase using PNPG as substrate incubated for 30 mins by absorbance based microplate reader assay.
The subject of data set [3] is Escherichia coli. In words: Potency index, ratio of IC50 for amoxapine to test compound IC50 for covalent allosteric inhibition of recombinant Escherichia coli beta-glucuronidase using PNPG as substrate incubated for 30 mins by absorbance based microplate reader assay.
The test system of data set [4] is Escherichia coli. In words: Covalent binding affinity to recombinant Escherichia coli beta-glucuronidase at Cys197 residue by LC-MS/MS analysis.
In data set [5] the test system is Escherichia coli. In words: Covalent binding affinity to recombinant Escherichia coli beta-glucuronidase at Cys28 residue by LC-MS/MS analysis.
Data set [6] deals with Escherichia coli. Briefly: Covalent binding affinity to recombinant Escherichia coli beta-glucuronidase at Cys443 residue by LC-MS/MS analysis.
The subject of data set [7] is Escherichia coli. In words: Covalent reversible binding affinity to recombinant Escherichia coli beta-glucuronidase using PNPG as substrate at 10 times IC50 pre-incubated for 30 mins followed by substrate addition by jump dilution assay.
A short description of data set [8]: Covalent reversible binding affinity to recombinant Escherichia coli beta-glucuronidase assessed as apparent inhibition constant incubated for 30 mins. Particulars: read-out: Ki(app).
Data set [9] is described as follows: Cytotoxicity against human HCT-116 cells assessed as cell viability at 5 uM incubated for 24 hrs by CCK-8 assay relative to control. It is filed as toxicity, cell-based. Particulars: read-out: Activity.
Data set [10] in a line: Covalent inhibition of Escherichia coli beta-glucurodinase.
A short description of data set [11]: Binding affinity to Escherichia coli beta-glucuronidase assessed as inhibition constant.
The test system of data set [12] is Escherichia coli. Briefly: Covalent irreversible binding affinity to recombinant Escherichia coli beta-glucuronidase assessed as inactivation constant incubated for 30 mins.
The nature of data set [13]: Covalent irreversible binding affinity to recombinant Escherichia coli beta-glucuronidase assessed as inhibition constant incubated for 30 mins.
Data set [14] has as its system Escherichia coli. In words: Covalent irreversible binding affinity to recombinant Escherichia coli beta-glucuronidase assessed as kinact/ki ratio incubated for 30 mins.
Data set [15] concerns Escherichia coli. In words: Covalent irreversible binding affinity to recombinant Escherichia coli beta-glucuronidase using PNPG as substrate at 10 times IC50 pre-incubated for 30 mins followed by substrate addition by jump dilution assay.

For the molecule `O=c1c2ccccc2[se]n1-c1ccc2[nH]ccc2c1`, the inhibition in the data set on Escherichia coli [1] was greater than 90%.
On to `O=c1c2ccccc2[se]n1-c1nncs1`, for which the inhibition in the data set on Escherichia coli [1] was less than 90%.
Same read-out and setting: in the case of `O=c1c2ccccc2[se]n1C12CC3CC(CC(C3)C1)C2` it was less than 90%.
Turning to `O=c1c2ccccc2[se]n1-c1cn[nH]c1`, the inhibition in the data set with Escherichia coli [1] was determined as 98.3%. The IC50 in data set [2] was 12.9 nM. In the data set with Escherichia coli [3], the Ratio IC50 was determined as 15.6. In addition, the result with Escherichia coli [4], in the data set on Escherichia coli [5], with Escherichia coli [6] and in the data set on Escherichia coli [7] was Active. In addition, the Ki in data set [8] amounted to 23.3 nM. The viability at 24 h, 5 µM in [9] turned out to be 71.5%.
As to `C=CCCn1[se]c2ccccc2c1=O`, the inhibition with Escherichia coli [1] is less than 90%.
On the same count and under the same terms, for `Cc1ccc2c(=O)n(Cc3ccccc3)[se]c2c1` the value was less than 90%.
In the case of `O=c1c2ccccc2[se]n1-c1ccc(Cl)cc1`, in the data set on Escherichia coli [1], the inhibition worked out at 94.3%. Besides, the IC50 in data set [2] amounted to 127 nM.
For `COC(=O)[C@H](CCCCNC(=O)OC(C)(C)C)n1[se]c2ccccc2c1=O`, the inhibition with Escherichia coli [1] was found to be 94.4%. For the same molecule, the IC50 in [2] came out at 66.5 nM. The viability at 24 h, 5 µM in [9] turned out to be 86.2%.
As for `CC(C)(C)c1nnc(-n2[se]c3ccccc3c2=O)s1`, the inhibition in the data set with Escherichia coli [1] was greater than 90%.
Turning to `COC(=O)[C@H](CO)n1[se]c2ccccc2c1=O`, the inhibition in the data set with Escherichia coli [1] worked out at 93.8%. Moreover, the IC50 in data set [2] stood at 48.2 nM. Besides, the viability at 24 h, 5 µM in data set [9] was 86.2%.
In data set [10], `Oc1ccccc1-c1nc2cc(Cl)cc(Cl)c2[nH]1` showed an IC50 of 4480 nM.
For `COC(=O)[C@H](CSC)n1[se]c2ccccc2c1=O`, the inhibition in the data set with Escherichia coli [1] is greater than 90%.
As for `O=C(O)c1ccc(-n2[se]c3ccccc3c2=O)cc1`, in the data set on Escherichia coli [1], the inhibition worked out at 96.8%. In addition, in [2], the IC50 worked out at 55.7 nM. Also, the viability at 24 h, 5 µM in data set [9] was 86.2%.
`O=c1[nH][se]c2ccccc12`: the inhibition with Escherichia coli [1] was found to be 72.1%.
For the molecule `O=c1c2ccccc2[se]n1-c1nnc(C2CCC(F)(F)CC2)s1`, the inhibition with Escherichia coli [1] is less than 90%.
The same measure, in the same setting: in the case of `O=c1c2ccccc2[se]n1-c1nnc(C2CCCC2)s1` it was less than 90%; in that of `CN(C)CCn1[se]c2ccccc2c1=O`, greater than 90%.
`COC(=O)c1ccc2c(=O)n(-c3cccc4cccnc34)[se]c2c1`: the inhibition with Escherichia coli [1] stood at 98.4%. Also, the IC50 in [2] came out at 63.4 nM.
As to `O=c1c2ccccc2[se]n1-c1ccccn1`, the inhibition in the data set with Escherichia coli [1] was less than 90%.
On the same count and under the same terms, in the case of `O=c1[nH][se]c2ccc(C(F)(F)F)cc12` it was less than 90%; in that of `O=c1c2ccccc2[se]n1-c1cnc2[nH]ncc2c1`, less than 90%.
On the same count and under the same terms, for `COc1ccc(-n2[se]c3ccccc3c2=O)cc1` the value was less than 90%; for `COC(=O)[C@H](Cc1c[nH]c2ccccc12)n1[se]c2ccccc2c1=O`, greater than 90%.
As for `O=c1c2ccccc2[se]n1CCO`, the inhibition in the data set with Escherichia coli [1] was determined as 96.2%. The IC50 in [2] was found to be 18.3 nM. In data set [9], the viability at 24 h, 5 µM is 86.2%.
On to `CCc1nnc(-n2[se]c3ccccc3c2=O)s1`, for which, in the data set with Escherichia coli [1], the inhibition was less than 90%.
Consider `C=CCn1[se]c2ccccc2c1=O`, for which the inhibition in the data set with Escherichia coli [1] is greater than 90%.
Take `Cn1cc(-n2[se]c3ccccc3c2=O)cn1`: the inhibition in the data set with Escherichia coli [1] amounted to 94.8%. In addition, in [2], the IC50 stood at 42.1 nM.
In the case of `O=c1c2ccccc2[se]n1-c1ncc(C(F)(F)F)cc1Cl`, the inhibition with Escherichia coli [1] was less than 90%.
Regarding `Clc1ccc2c(c1)C(N1CCNCC1)=Nc1ccccc1O2` [AMOXAPINE], in the data set on Escherichia coli [1], the inhibition was found to be 88.9%. Further, the IC50 in data set [2] amounted to 202 nM. Also, in data set [11], the Ki is 180 nM.
With `Cc1cc(-n2[se]c3ccccc3c2=O)n[nH]1`, in the data set with Escherichia coli [1], the inhibition is less than 90%.
For `O=c1c2ccccc2[se]n1-c1nnc(C(F)(F)F)s1`, in the data set with Escherichia coli [1], the inhibition stood at 93.7%. Moreover, the IC50 in [2] came to 188 nM.
For the molecule `O=c1c2ccccc2[se]n1-c1nccs1`, the inhibition in the data set with Escherichia coli [1] was less than 90%.
Still for that read-out and setting: for `O=c1c2ccccc2[se]n1-c1ccc(C(F)(F)F)cc1` the value was less than 90%.
With `CNC(=O)c1cc(Oc2ccc(-n3[se]c4ccccc4c3=O)cc2)ccn1`, in the data set with Escherichia coli [1], the inhibition stood at 96.2%. Besides, in data set [2], the IC50 worked out at 446 nM. Moreover, in data set [9], the viability at 24 h, 5 µM was 86.2%.
With `O=c1c2ccccc2[se]n1-c1cc(C2CC2)[nH]n1`, the inhibition in the data set on Escherichia coli [1] was less than 90%.
On the same count and under the same terms, for `Cc1nnc(-n2[se]c3ccccc3c2=O)s1` the value was less than 90%.
On to `Cc1nnc(-n2[se]c3ccccc3c2=O)o1`, for which the inhibition with Escherichia coli [1] is 97.5%. Moreover, in data set [2], the IC50 came to 116 nM.
Regarding `CCn1[se]c2ccccc2c1=O`, the inhibition with Escherichia coli [1] was less than 90%.
Consider `O=c1c2cc(Br)ccc2[se]n1-c1ccccc1`, for which the inhibition in the data set with Escherichia coli [1] is less than 90%.
In the case of `CC(=O)OC[C@H]1O[C@@H](n2cnc3c(-n4[se]c5ccccc5c4=O)ncnc32)[C@H](OC(C)=O)[C@@H]1OC(C)=O`, in the data set on Escherichia coli [1], the inhibition is 98.8%. Further, the IC50 in [2] is 73.4 nM. Besides, the result in the data set with Escherichia coli [4] and in the data set on Escherichia coli [15] was Active. The Kinact with Escherichia coli [12] turned out to be 7.6 min⁻¹. Besides, the Ki in data set [13] was found to be 5950 nM. Further, the K in the data set with Escherichia coli [14] is 21300 M⁻¹ s⁻¹. In data set [9], the viability at 24 h, 5 µM is 81%.
Regarding `O=c1c2ccccc2[se]n1-c1ccc2[nH]ncc2c1`, the inhibition with Escherichia coli [1] is less than 90%.
Still for that read-out and setting: for `O=c1c2ccccc2[se]n1C1CCCCC1` the value was less than 90%; for `O=c1c2ccccc2[se]n1-c1ccccc1`, less than 90%.
In the case of `CC(C)c1nnc(-n2[se]c3ccccc3c2=O)s1`, the inhibition in the data set with Escherichia coli [1] was less than 90%.
Still for that read-out and setting: for `O=c1c2ccccc2[se]n1-c1ccc(F)cc1` the value was greater than 90%; for `COC(=O)[C@H](CC(C)C)NC(=O)Cn1[se]c2ccccc2c1=O`, greater than 90%; for `O=c1c2ccccc2[se]n1-c1cccnc1`, greater than 90%.
For the molecule `COC(=O)[C@H](Cc1ccc(O)cc1)n1[se]c2ccccc2c1=O`, the inhibition in the data set on Escherichia coli [1] stood at 96.9%. Further, the IC50 in [2] came to 21.2 nM. The viability at 24 h, 5 µM in [9] amounted to 86.2%.
On to `O=c1c2ccccc2[se]n1CC(F)(F)F`, for which the inhibition in the data set on Escherichia coli [1] is 94.7%. In addition, the IC50 in data set [2] turned out to be 76.9 nM.
The like results for `CN1CCC(n2[se]c3ccccc3c2=O)CC1` were, in that order, 93.9% and 58.5 nM.
As to `CCCc1nnc(-n2[se]c3ccccc3c2=O)s1`, the inhibition in the data set with Escherichia coli [1] is less than 90%.
Regarding `O=c1c2ccccc2[se]n1-c1nnc(CC(F)(F)F)s1`, the inhibition in the data set on Escherichia coli [1] is 6.11%.
